Laboratory results reported in US9113629B2, “4-amino-6-(4-substituted-phenyl)-picolinates and 6-amino-2-(4-substituted-phenyl)-pyrimidine-4-carboxylates and their use as herbicides” (DOW AGROSCIENCES LLC, priority 2013, dated 2015).
Where two headings read alike, the source gives them in different places.

Key:
[1] = test system: Key Broadleaf Weed and Crop Species; experiment: Post-emergent Test II herbicidal activity (Table 5); assay type: in vivo; details: post-emergence, 336 h, post-emergent, 14 days after application; for pest or weed control at 70 g/ha: 70 g ai/ha; for pest or weed control at 140 g/ha: 140 g ai/ha
In short: (§1)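 Post-emergence foliar spray, 187 L/ha, track sprayer at 43 cm above canopy. Carrier: acetone/water/IPA/DMSO/Atplus 411F/Triton X-155. Plants at 1st–2nd true leaf; subirrigated afterwards; % injury scored visually at 14 d.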

[2] = test system: Key Grass and Sedge Weeds as well as Grass Crops; experiment: Post-emergent Test II herbicidal activity (Table 6); assay type: in vivo; details: post-emergence, 336 h; for pest or weed control at 70 g/ha: application rate 70 g ai/ha; for pest or weed control at 140 g/ha: application rate 140 g ai/ha
In short: as §1

[3] = ABUTH: velvetleaf (Abutilon theophrasti), read-out: Visual Growth Reduction (%) 14 Days After Application ABUTH
[4] = AMARE: redroot pigweed (Amaranthus retroflexus), read-out: Visual Growth Reduction (%) 14 Days After Application AMARE
[5] = BRSNN: oilseed-rape, canola (Brassica napus), read-out: Visual Growth Reduction (%) 14 Days After Application BRSNN
[6] = CHEAL: lambsquarters (Chenopodium album), read-out: Visual Growth Reduction (%) 14 Days After Application CHEAL
[7] = EPHHL: wild poinsettia (Euphorbia heterophylla), read-out: Visual Growth Reduction (%) 14 Days After Application EPHHL
[8] = HELAN: sunflower (Helianthus annuus), read-out: Visual Growth Reduction (%) 14 Days After Application HELAN
[9] = VIOTR: wild pansy (Viola tricolor), read-out: Visual Growth Reduction (%) 14 Days After Application VIOTR
[10] = Triticum aestivum, TRZSS (wheat), read-out: Visual Growth Reduction (%) 14 Days After Application, TRZSS
[11] = CYPES: yellow nutsedge (Cyperus esculentus), read-out: Visual Growth Reduction (%) 14 Days After Application, CYPES
[12] = DIGSA: crabgrass (Digitaria sanguinalis), read-out: Visual Growth Reduction (%) 14 Days After Application, DIGSA
[13] = ECHCG: barnyardgrass (Echinochloa crus-galli), read-out: Visual Growth Reduction (%) 14 Days After Application, ECHCG
[14] = ORYSA: rice (Oryza sativa), read-out: Visual Growth Reduction (%) 14 Days After Application, ORYSA
[15] = SETFA: giant foxtail (Setaria faberi), read-out: Visual Growth Reduction (%) 14 Days After Application, SETFA
[16] = SORVU: grain sorghum (Sorghum vulgare), read-out: Visual Growth Reduction (%) 14 Days After Application, SORVU
[17] = ZEAMX: maize, corn (Zea mays), read-out: Visual Growth Reduction (%) 14 Days After Application, ZEAMX

| Compound | pest or weed control at 70 g/ha [1, 3] [%] | pest or weed control at 140 g/ha [1, 3] [%] | pest or weed control at 70 g/ha [1, 4] [%] | pest or weed control at 140 g/ha [1, 4] [%] | pest or weed control at 70 g/ha [1, 5] [%] | pest or weed control at 140 g/ha [1, 5] [%] | pest or weed control at 70 g/ha [1, 6] [%] | pest or weed control at 140 g/ha [1, 6] [%] | pest or weed control at 70 g/ha [1, 7] [%] | pest or weed control at 140 g/ha [1, 7] [%] | pest or weed control at 70 g/ha [1, 8] [%] | pest or weed control at 140 g/ha [1, 8] [%] | pest or weed control at 70 g/ha [1, 9] [%] | pest or weed control at 140 g/ha [1, 9] [%] | pest or weed control at 70 g/ha [2, 10] [%] | pest or weed control at 140 g/ha [2, 10] [%] | pest or weed control at 70 g/ha [2, 11] [%] | pest or weed control at 140 g/ha [2, 11] [%] | pest or weed control at 70 g/ha [2, 12] [%] | pest or weed control at 140 g/ha [2, 12] [%] | further results |
| --- | --- | --- | --- | --- | --- | --- | --- | --- | --- | --- | --- | --- | --- | --- | --- | --- | --- | --- | --- | --- | --- |
| COC(=O)c1nc(-c2cc(F)c(F)cc2F)c(F)c(N)c1Cl [Compound 200, Methyl 4-amino-3-chloro-5-fluoro-6-(2,4,5-trifluorophenyl)picolinate] | 95 to 100 | 95 to 100 | 95 to 100 | 95 to 100 | 95 to 100 | 95 to 100 | 95 to 100 | 95 to 100 | 95 to 100 | 95 to 100 | 85 to 94 | 95 to 100 | 75 to 84 | 95 to 100 | 30 to 44 | 30 to 44 | 0 to 29 | 45 to 59 | 75 to 84 | 75 to 84 | pest or weed control at 70 g/ha [2, 13]: 75 to 84%; pest or weed control at 140 g/ha [2, 13]: 75 to 84%; pest or weed control at 70 g/ha [2, 14]: 0 to 29%; pest or weed control at 140 g/ha [2, 14]: 0 to 29%; pest or weed control at 70 g/ha [2, 15]: 45 to 59%; pest or weed control at 140 g/ha [2, 15]: 75 to 84%; pest or weed control at 70 g/ha [2, 16]: 0 to 29%; pest or weed control at 140 g/ha [2, 16]: 0 to 29%; pest or weed control at 70 g/ha [2, 17]: 45 to 59%; pest or weed control at 140 g/ha [2, 17]: 60 to 74%; melting point: 143.5 to 144.5 °C |
| COC(=O)c1nc(-c2cc(F)c(Br)cc2F)cc(N)c1Cl [Compound 127, methyl 4-amino-6-(4-bromo-2,5-difluorophenyl)-3-chloropicolinate] | 95 to 100 | 95 to 100 | 95 to 100 | 95 to 100 | 85 to 94 | 95 to 100 | 95 to 100 | 95 to 100 | 95 to 100 | 95 to 100 | 85 to 94 | 95 to 100 | 95 to 100 | 95 to 100 | 60 to 74 | 75 to 84 | 95 to 100 | 95 to 100 | 85 to 94 | 95 to 100 | pest or weed control at 70 g/ha [2, 13]: 95 to 100%; pest or weed control at 140 g/ha [2, 13]: 95 to 100%; pest or weed control at 70 g/ha [2, 14]: 0 to 29%; pest or weed control at 140 g/ha [2, 14]: 0 to 29%; pest or weed control at 70 g/ha [2, 15]: 95 to 100%; pest or weed control at 140 g/ha [2, 15]: 95 to 100%; pest or weed control at 70 g/ha [2, 16]: 95 to 100%; pest or weed control at 140 g/ha [2, 16]: 95 to 100%; pest or weed control at 70 g/ha [2, 17]: 85 to 94%; pest or weed control at 140 g/ha [2, 17]: 85 to 94%; melting point: 174 to 176 °C |
| C=Cc1c(C(=O)OC)nc(-c2ccc(C(F)(F)F)c(F)c2F)c(F)c1N [Compound 53, methyl 4-amino-6-(2,3-difluoro-4-(trifluoromethyl)phenyl)-5-fluoro-3-vinylpicolinate] | 0 to 29 | 0 to 29 | 0 to 29 | 0 to 29 | 0 to 29 | 0 to 29 | 0 to 29 | 0 to 29 | 95 to 100 | 95 to 100 | 0 to 29 | 0 to 29 | 0 to 29 | 0 to 29 | 0 to 29 | 0 to 29 | 0 to 29 | 0 to 29 | 0 to 29 | 0 to 29 | pest or weed control at 70 g/ha [2, 13]: 0 to 29%; pest or weed control at 140 g/ha [2, 13]: 0 to 29%; pest or weed control at 70 g/ha [2, 14]: 0 to 29%; pest or weed control at 140 g/ha [2, 14]: 0 to 29%; pest or weed control at 70 g/ha [2, 15]: 0 to 29%; pest or weed control at 140 g/ha [2, 15]: 0 to 29%; pest or weed control at 70 g/ha [2, 16]: 0 to 29%; pest or weed control at 140 g/ha [2, 16]: 0 to 29%; pest or weed control at 70 g/ha [2, 17]: 0 to 29%; pest or weed control at 140 g/ha [2, 17]: 0 to 29%; melting point: 118 to 120 °C |
